Assay results published in patent publication US20110020434A1, “NANOPARTICLE ARSENIC-PLATINUM COMPOSITIONS” (priority 2005, published 2011).
Like-named read-outs stand apart in the source and are kept apart here.

How the values were obtained:
[1] = system: human lymphoma cell line SU-DHL-4 (CD20-positive); experiment: MTS cytotoxicity assay of liposomal Ni-arsenic and Rituxan conjugate; assay type: cell-based; settings: 72 h (three days) at 37° C.; read-out: IC50 (arsenic level), SU-DHL-4
Experimental: The human lymphoma B cell line of SU-DHL-4 (CD20-positive) was obtained from the American Type Culture Collection (Rockville, MD, USA). Cells were cultured in RPMI 1640 (Invitrogen Corporation) supplemented with 10% fetal bovine serum, 2 mM glutamine, 100 units/mL penicillim, 100 ug/mL streptomycin, and 2.5 ug/mL fungizone. Cells were maintained at 37° C. in an incubator with 5% CO2 and harvested in the exponential phase of growth.
Cells (25,000 cells/mL) were treated with various drugs and plated in 96-well plates. After incubation for 72 h at 37° C., the MTS solution (20 uL/well) was added to each well and the plates were further incubated for 4 h at 37° C. before the absorbance readings at 490 nm.
In a parallel experiment, SU-DHL-4 cells (100,000 cells/mL) were treated with various drugs and plated in 96-well plates. After incubation at 37° C. for 20 min, cells were washed twice using 200 uL/well of PBS and refilled with 100 uL/well of fresh medium and incubated for an additional 71.6 h. The MTS solution (20 uL/well) was added to each well and the plates were further incubated for 4 h at 37° C. before taking the absorbance readings at 490 nm.

[2] = system: OVCAR-3 (human ovary adenocarcinoma cells); experiment: MTS cell proliferation cytotoxicity assay; assay type: cell-based; settings: 72 h drug treatment
Source text: (§1) Cell culture. SU-DHL-4 (human lymphoma B cells) was from the Deutsche Sammlung von Mikroorganismen and Zellkulturen GmbH (DSMZ, Braunschweig, Germany). MM.1S (human multiple myeloma B cells) was previously established in the laboratory of Prof. Steven. T. Rosen (Robert H. Lurie Comprehensive Cancer Center, Northwestern University). IM-9 (human lymphoblast B cells), MDA-MB-231 (human breast adenocarcinoma cells), OVCAR-3 (human ovary adenocarcinoma cells), KB (human nasopharyngeal epidermal carcinoma cells, FR), and MCF-7 (human breast carcinoma cells, FR^-) (Sonvico et al. J. Drug Del. Sci. Tech. 2005, 15, 407-410, Chen et al. Mol. Cancer Ther. 2009, in press., herein incorporated by reference in their entireties) were purchased from ATCC (Manassas, Va., USA). All Cells were maintained at 37° C. in an incubator with 5% CO2 and harvested in the exponential phase of growth. SU-DHL-4, IM-9, and MM.1S cells were cultured in RPMI-1640 supplemented with 10% FBS, 2 mM glutamine, 100 units/mL penicillin-streptomycin, and 2.5 μg/mL Amphotericin B. MDA-MB-231 cells were cultured in DMEM/F12 supplemented with 5% cds-FBS, 2 mM glutamine, 100 units/mL penicillin-streptomycin, and 0.1% human insulin solution. OVCAR-3 cells were cultured in RPMI-1640 supplemented with 20% FBS, 100 units/mL penicillin-streptomycin, and 0.1% human insulin solution. MCF-7 cells was cultured in EMEM supplemented with 10% FBS, 2 mM glutamine, 100 units/mL penicillin-streptomycin and 2.5 μg/mL Amphotericin B. KB cells were cultured in EMEM supplemented with 10% FBS and 50 units/mL penicillin-streptomycin. For folate-targeting experiments, KB cells were transferred into folate-deficient RPMI-1640 medium for more than one week before each experiment (Lee et al. J. Biol. Chem. 1994, 269, 3198-3204, herein incorporated by reference in its entirety).
(§2) The MTS assay is one of most high throughput and economical assays for detecting viability of cancer cells. Briefly, SU-DHL-4 and IM-9 (40,000 cells/mL), and MM.1S (250,000 cells/mL) were treated with drugs and plated in quadruplicate (100 uL/well) onto 96-well plates. For MDA-MB-231 and OVCAR-3, 20,000 cells/mL were plated in quadruplicate (100 uL/well) onto 96-well plates, incubated overnight and then treated with drugs. After incubation for the indicated period at 37° C., the MTS/PMS solution (20 μL/well) was added to each well and the plates were further incubated for 4 h at 37° C. before reading the absorbance at 490 nm. Cell growth rates were expressed as a function of drug concentration on a logarithmic scale. The IC50 values (the drug concentration required for 50% inhibition of cell growth) were determined by fitting to a sigmoidal dose-response curve using Origin 6.0 software (Microcal Software, Inc., Northampton, USA). In the case of the 1.5 h (SEE FIG. 8B) or 2 h (SEE FIG. 9B) time periods, the cells treated with drugs were first incubated for 1.5 h or 2 h at 37° C., then washed twice with PBS to remove un-associated drugs or liposomes, and further incubated up to 48 h (FIG. 8b) or 72 h (FIG. 9b) in drug-free medium, followed by the MTS assay.

[3] = system: MM.1S (human multiple myeloma B cells); experiment: MTS cell proliferation cytotoxicity assay; assay type: cell-based; settings: 72 h drug treatment
Source text: as §1, §2

[4] = system: IM-9 (human lymphoblast B cells); assay type: cell-based; settings: 48 h drug treatment
Source text: as §1, §2

[5] = system: MDA-MB-231 (human breast adenocarcinoma cells); assay type: cell-based; settings: 72 h drug treatment
Source text: as §1, §2

[6] = system: SU-DHL-4 (human lymphoma B cells); assay type: cell-based; settings: 48 h drug treatment
Source text: as §1, §2

MCF-7 (FR−) cells = experiment: Quantitative cellular drug uptake by ICP-MS; assay type: cell-based, human; settings: 3 h at 37° C.
Source text: as §1, with “OVCAR-3 cells were cultured in RPMI-1640 supplemented with 20% FBS, 100 units/mL penicillin-streptomycin, and 0.1% human insulin solution. MCF-7 cells was cultured in EMEM supplemented with 10% FBS, 2 mM glutamine, 100 units/mL penicillin-streptomycin and 2.5 μg/mL Amphotericin B. KB cells were cultured in EMEM supplemented with 10% FBS and 50 units/mL penicillin-streptomycin. For folate-targeting experiments, KB cells were transferred into folate-deficient RPMI-1640 medium for more than one week before each experiment (Lee et al. J. Biol. Chem. 1994, 269, 3198-3204, herein incorporated by reference in its entirety).” left out
Cells were plated, 24 h before each experiment, in 6-well plates with 500,000 cells per well. […] Cell-associated drug was expressed as As and Pt atoms per cell (SEE FIG. 12E and Table 4.

[7] = system: KB (FR+) human nasopharyngeal epidermal carcinoma cells; experiment: Guava ViaCount cytotoxicity assay, folate-targeted liposomes; assay type: cell-based
Source text: as §1
(§3) The in vitro cytotoxicities of folate-targeted liposomes against KB and MCF-7 cells were determined by Guave ViaCount assay (Stearns et al. Cancer Res. 2006, 66, 673-681, Donaldson et al. Cell Death Differ 2009, 16, 125-138, herein incorporated by reference in their entireties) (The MTS assay is not applicable in this case because the folate moiety interferes with the reactions of MTS/PMS agents and seriously impairs accuracy of cell viability (Chen et al. Mol. Cancer Ther. 2009, in press.)). Cells were first plated in 48-well plates at a density of 30,000-60,000 cells/mL, 0.2 mL per well. After 24 h at 37° C., the media were replaced with drug solutions. Cells were thus incubated with drugs continuously for 72 h, or exposed to drugs for 3 h at 37° C., then washed with PBS ×2 and further incubated up to 72 h in drug-free medium. The same Pt concentrations of aqua-cisPt were used as in f-NB(As, Pt). Cell viability was determined by Guave ViaCount (Stearns et al. Cancer Res. 2006, 66, 673-681, Donaldson et al. Cell Death Differ 2009, 16, 125-138, herein incorporated by reference in their entireties), using a Guava EasyCyte Mini flow cytometer (Guava Technologies, Hayward, Calif.). Cells, after released from plates by trypsinization (using 0.05% trypsin/0.02% EDTA), were stained with the Guava Viacount agent, which contains two fluorescent dyes, one cell permeable and one impermeable. This allows viable and dead cell numbers to be accurately determined by Guava Viacount software. Cell growth rates were expressed as a function of drug concentration on a logarithmic scale. The IC50 values (the drug concentration required for 50% inhibition of cell growth) were determined by fitting to a sigmoidal dose-response curve using Origin 6.0 (Microcal Software, Inc., Northampton, USA) (SEE FIGS. 12F-G and Table 3).

[8] = system: MCF-7 (FR−) human breast carcinoma cells; experiment: as above; assay type: cell-based
Source text: as §1, §3

Molecule: Arsenic trioxide [As2O3]
- IC50 [1]: 1.45 µM
- IC50 ([2]; based on As concentration): 2.7 ± 1.1 µM
- IC50 ([3]; based on As concentration): 0.58 µM
- IC50 ([4]; based on As concentration): 2.1 ± 0.03 µM
- IC50 ([5]; based on As concentration): 10 µM
- IC50 ([6]; based on As concentration): 3.7 µM
- Cellular uptake, MCF-7 (FR^−), As (MCF-7 (FR−) cells; 10 μM arsenic): 9.4 ± 2.3 ×10^7 atoms/cell
- IC50 ([7]; continuous 72 h incubation, As concentration, read-out: KB (FR^+), IC50 (μM), 72 h): 5.2 ± 1 µM
- IC50 ([7]; read-out: KB (FR^+), IC50 (μM), 3 h, 3 h exposure, washed, drug-free medium up to 72 h, As concentration): > 200 µM
- IC50 ([8]; continuous 72 h incubation, As concentration, read-out: MCF-7 (FR^−), IC50 (μM), 72 h): 6.9 ± 1.7 µM
- IC50 ([8]; read-out: MCF-7 (FR^−), IC50 (μM), 3 h, 3 h exposure, washed, drug-free medium up to 72 h, As concentration): 63.7 ± 22.3 µM

Molecule: N.N.[Cl][Pt][Cl] [CisPt, cis-diamine dichloroplatinum(II)]
- IC50 ([2]; based on Pt concentration): 2 ± 0.01 µM
- IC50 ([3]; based on Pt concentration): 1.43 µM
- IC50 ([4]; based on Pt concentration): 0.6 ± 0.2 µM
- IC50 ([5]; based on Pt concentration): 14 µM
- IC50 ([6]; based on Pt concentration): 3.5 µM

Molecule: CC(=O)[O-].CC(=O)[O-].N.N.O.O.[Pt+2] [Aqua-cisPt, [cis-(NH3)2Pt(OH2)2](OAc)2]
- IC50 ([2]; based on Pt concentration): 2.6 ± 0.8 µM
- IC50 ([4]; based on Pt concentration): 1 ± 0.01 µM
- IC50 ([5]; based on Pt concentration): 17.9 µM
- IC50 ([6]; based on Pt concentration): 5.5 µM
- Cellular uptake, MCF-7 (FR^−), Pt (MCF-7 (FR−) cells; 10 μM arsenic / 8 μM Pt): 0.24 ± 0.07 ×10^7 atoms/cell
- IC50 ([7]; continuous 72 h incubation, Pt concentration, read-out: KB (FR^+), IC50 (μM), 72 h): 1.3 ± 0.2 µM
- IC50 ([7]; read-out: KB (FR^+), IC50 (μM), 3 h, 3 h exposure, washed, drug-free medium up to 72 h, Pt concentration): 9.7 ± 2.5 µM
- IC50 ([8]; continuous 72 h incubation, Pt concentration, read-out: MCF-7 (FR^−), IC50 (μM), 72 h): 12.2 ± 0.4 µM
- IC50 ([8]; read-out: MCF-7 (FR^−), IC50 (μM), 3 h, 3 h exposure, washed, drug-free medium up to 72 h, Pt concentration): 88.9 ± 14.4 µM
